Literature values in patent US10835538B2, “Method of treating benign prostatic hyperlasia with antibiotics” (Nymox Corporation, priority 2018, dated 2020).

CC(COc1ccccc1)N(CCCl)Cc1ccccc1 (centres unmarked) [phenoxybenzamine]
Cases treated in which side effects cannot be tolerated and therapy has to be abandoned (human, in vivo): about 10% | Patients treated for BPH in whom side effects are present (hypotension, dizziness, faintness, tachycardia, weakness, retrograde or absent ejaculation): approximately 30%
